Measured values reported in PubChem BioAssay (NCI).
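A five-concentration, 48-hour dose response in 96-well plates underlies each endpoint, interpolated linearly between surrounding concentrations. GI50: concentration for 50% inhibition of growth. TGI is the concentration that stops growth completely.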

What was measured:
Experiment in all cases: NCI tumour cell line growth inhibition, 48 h
HCT-116 colon = tested on: HCT-116 colon
SF-295 CNS = tested on: SF-295 CNS
SW-620 colon = tested on: SW-620 colon
MCF7 breast = tested on: MCF7 breast
SF-539 CNS = tested on: SF-539 CNS
ACHN renal = tested on: ACHN renal
U251 CNS = tested on: U251 CNS
LOX IMVI melanoma = tested on: LOX IMVI melanoma
NCI-H23 lung = tested on: NCI-H23 lung
HS 578T breast = tested on: HS 578T breast
OVCAR-3 ovarian = tested on: OVCAR-3 ovarian
SF-268 CNS = tested on: SF-268 CNS
NCI-H460 lung = tested on: NCI-H460 lung
MOLT-4 leukemia = tested on: MOLT-4 leukemia
K-562 leukemia = tested on: K-562 leukemia
SR leukemia = tested on: SR leukemia
MDA-MB-231 breast = tested on: MDA-MB-231 breast
RXF 393 renal = tested on: RXF 393 renal
SNB-75 CNS = tested on: SNB-75 CNS
CAKI-1 renal = tested on: CAKI-1 renal
SN12C renal = tested on: SN12C renal
SK-MEL-28 melanoma = tested on: SK-MEL-28 melanoma
HOP-92 NSCLC = tested on: HOP-92 NSCLC
DU-145 prostate = tested on: DU-145 prostate
HCC-2998 colon = tested on: HCC-2998 colon
A498 renal = tested on: A498 renal
SK-MEL-2 melanoma = tested on: SK-MEL-2 melanoma
PC-3 prostate = tested on: PC-3 prostate
NCI-H226 lung = tested on: NCI-H226 lung
MDA-MB-435 = tested on: MDA-MB-435
T-47D breast = tested on: T-47D breast
786-0 renal = tested on: 786-0 renal
OVCAR-8 ovarian = tested on: OVCAR-8 ovarian
KM12 colon = tested on: KM12 colon
HT29 colon = tested on: HT29 colon
IGROV1 ovarian = tested on: IGROV1 ovarian
EKVX NSCLC = tested on: EKVX NSCLC
HL-60(TB) leukemia = tested on: HL-60(TB) leukemia
BT-549 breast = tested on: BT-549 breast
OVCAR-4 ovarian = tested on: OVCAR-4 ovarian
SNB-19 CNS = tested on: SNB-19 CNS
RPMI-8226 leukemia = tested on: RPMI-8226 leukemia
OVCAR-5 ovarian = tested on: OVCAR-5 ovarian
M14 melanoma = tested on: M14 melanoma
A549 NSCLC = tested on: A549 NSCLC
NCI-H522 lung = tested on: NCI-H522 lung
SK-MEL-5 melanoma = tested on: SK-MEL-5 melanoma
UO-31 renal = tested on: UO-31 renal
SK-OV-3 ovarian = tested on: SK-OV-3 ovarian
COLO 205 colon = tested on: COLO 205 colon
NCI/ADR-RES ovarian = tested on: NCI/ADR-RES ovarian
HCT-15 colon = tested on: HCT-15 colon
UACC-62 melanoma = tested on: UACC-62 melanoma
UACC-257 melanoma = tested on: UACC-257 melanoma

SMILES: O=C(NCC1CCCO1)c1ccc(NC2=C(Cl)C(=O)N(Cc3ccccc3)C2=O)cc1 (stereo not drawn)
- GI50 (HCT-116 colon): 13.3 µM
- TGI (HCT-116 colon): 26.2 µM
- GI50 (SF-295 CNS): 12.1 µM
- TGI (SF-295 CNS): 25 µM
- GI50 (SW-620 colon): 5.95 µM
- TGI (SW-620 colon): 42.8 µM
- GI50 (MCF7 breast): 4.39 µM
- TGI (MCF7 breast): 26.6 µM
- GI50 (SF-539 CNS): 15.4 µM
- TGI (SF-539 CNS): 31.2 µM
- GI50 (ACHN renal): 18.7 µM
- TGI (ACHN renal): 38.8 µM
- GI50 (U251 CNS): 18.6 µM
- TGI (U251 CNS): 40.7 µM
- GI50 (LOX IMVI melanoma): 24.5 µM
- TGI (LOX IMVI melanoma): > 100 µM
- GI50 (NCI-H23 lung): 17.2 µM
- TGI (NCI-H23 lung): 34.3 µM
- GI50 (HS 578T breast): 22.1 µM
- TGI (HS 578T breast): 65.3 µM
- GI50 (OVCAR-3 ovarian): 3.18 µM
- TGI (OVCAR-3 ovarian): 10.7 µM
- GI50 (SF-268 CNS): 13.2 µM
- TGI (SF-268 CNS): 45.4 µM
- GI50 (NCI-H460 lung): 15.5 µM
- TGI (NCI-H460 lung): 46.5 µM
- GI50 (MOLT-4 leukemia): 4.49 µM
- TGI (MOLT-4 leukemia): > 100 µM
- GI50 (K-562 leukemia): 11.1 µM
- TGI (K-562 leukemia): 34.3 µM
- GI50 (SR leukemia): 12.4 µM
- TGI (SR leukemia): 30.9 µM
- GI50 (MDA-MB-231 breast): 16.8 µM
- TGI (MDA-MB-231 breast): 46.6 µM
- GI50 (RXF 393 renal): 20.6 µM
- TGI (RXF 393 renal): 50.8 µM
- GI50 (SNB-75 CNS): 20 µM
- TGI (SNB-75 CNS): 39.3 µM
- GI50 (CAKI-1 renal): 1.79 µM
- TGI (CAKI-1 renal): 3.34 µM
- GI50 (SN12C renal): 0.0654 µM
- TGI (SN12C renal): 7.32 µM
- GI50 (SK-MEL-28 melanoma): 18.6 µM
- TGI (SK-MEL-28 melanoma): 41.1 µM
- GI50 (HOP-92 NSCLC): 6.4 µM
- TGI (HOP-92 NSCLC): 21.5 µM
- GI50 (DU-145 prostate): 12.3 µM
- TGI (DU-145 prostate): 30 µM
- GI50 (HCC-2998 colon): 13.1 µM
- TGI (HCC-2998 colon): 27.1 µM
- GI50 (A498 renal): 22.2 µM
- TGI (A498 renal): 41.9 µM
- GI50 (SK-MEL-2 melanoma): 17.5 µM
- TGI (SK-MEL-2 melanoma): 34.7 µM
- GI50 (PC-3 prostate): 11.4 µM
- TGI (PC-3 prostate): 25 µM
- GI50 (NCI-H226 lung): 11.8 µM
- TGI (NCI-H226 lung): 26.7 µM
- GI50 (MDA-MB-435): 9.33 µM
- TGI (MDA-MB-435): 21.7 µM
- GI50 (T-47D breast): 30.5 µM
- TGI (T-47D breast): > 100 µM
- GI50 (786-0 renal): 15.2 µM
- TGI (786-0 renal): 28.6 µM
- GI50 (OVCAR-8 ovarian): 16.7 µM
- TGI (OVCAR-8 ovarian): 54.6 µM
- GI50 (KM12 colon): 17.1 µM
- TGI (KM12 colon): 35 µM
- GI50 (HT29 colon): 22.2 µM
- TGI (HT29 colon): 88 µM
- GI50 (IGROV1 ovarian): 2.93 µM
- TGI (IGROV1 ovarian): 7.52 µM
- GI50 (EKVX NSCLC): 20.4 µM
- TGI (EKVX NSCLC): 37 µM
- GI50 (HL-60(TB) leukemia): 9.25 µM
- TGI (HL-60(TB) leukemia): 25 µM
- GI50 (BT-549 breast): 16.7 µM
- TGI (BT-549 breast): 33.9 µM
- GI50 (OVCAR-4 ovarian): 19.2 µM
- TGI (OVCAR-4 ovarian): 44.6 µM
- GI50 (SNB-19 CNS): 21.5 µM
- TGI (SNB-19 CNS): 45.1 µM
- GI50 (RPMI-8226 leukemia): 3.36 µM
- TGI (RPMI-8226 leukemia): 12.7 µM
- GI50 (OVCAR-5 ovarian): 16.6 µM
- TGI (OVCAR-5 ovarian): 32.8 µM
- GI50 (M14 melanoma): 11.2 µM
- TGI (M14 melanoma): 23.4 µM
- GI50 (A549 NSCLC): 19.1 µM
- TGI (A549 NSCLC): 50.5 µM
- GI50 (NCI-H522 lung): 1.92 µM
- TGI (NCI-H522 lung): 10.8 µM
- GI50 (SK-MEL-5 melanoma): 14.6 µM
- TGI (SK-MEL-5 melanoma): 33.3 µM
- GI50 (UO-31 renal): 2.67 µM
- TGI (UO-31 renal): 8.24 µM
- GI50 (SK-OV-3 ovarian): 18.6 µM
- TGI (SK-OV-3 ovarian): 36.6 µM
- GI50 (COLO 205 colon): 23 µM
- TGI (COLO 205 colon): 71.9 µM
- GI50 (NCI/ADR-RES ovarian): 23.9 µM
- TGI (NCI/ADR-RES ovarian): 51.4 µM
- GI50 (HCT-15 colon): 19 µM
- TGI (HCT-15 colon): 62.3 µM
- GI50 (UACC-62 melanoma): 10.8 µM
- TGI (UACC-62 melanoma): 24.3 µM
- GI50 (UACC-257 melanoma): 17 µM
- TGI (UACC-257 melanoma): 45.6 µM
